Measurements reported in patent publication US11578265B2, “AIEgens for cancer cell imaging” (THE HONG KONG UNIVERSITY OF SCIENCE AND TECHNOLOGY, priority 2016, dated 2023).

Tests used:
[1] = UV-vis and photoluminescence properties of 2TPE-4E; type: physicochemical
Protocol: The photophysical properties of 2TPE-4E were investigated by UV-vis (FIG. 7A) and photoluminescence (PL) spectra. […] The high ε means 2TPE-4E could be excited by a weak laser power, which is beneficial for bio-application due to the weak photo-damage and photobleaching.
Although the film of 2TPE-4E looked bright, its quantum yield (QY) was measured to be around 6%, which can probably be ascribed to the high molar extinction coefficient. […] With the water fraction (fw) increasing, 2TPE-4E began to aggregate and gave a highest intensity at a fw of 90% due to the restriction of intramolecular rotation.

Water solubility of CSPP = type: physicochemical
Description: The design and synthesis of the present subject matter was inspired by the simple design and synthesis of ASCP, which was further modified and the hydrophilicity was improved. To prevent denature of antibodies during conjugation, aqueous solution was used for the reaction. A water-soluble AIEgen having a long wavelength in absorption and emission was required. Piperazine (PZ) was introduced to the structure and served as the electron donating group and hydrophilic group; pyridium (Py) salt was kept as the strong electron withdrawing group and hydrophilic group; and α-Cyanostilbene was the core skeleton for attributing AIE characteristics. As such, a new AIEgen, CSPP, was synthesized by Knoevenagel condensation and Suzuki coupling and the targeted compound was successfully obtained. CSPP carries two positive charges, thus enjoying high water-solubility, and its donor-acceptor structure contributes to a long-wavelength absorption, as well as emission. The synthetic route to CSPP and CSPP—NHS is shown below, with the scheme of synthesis following.

NCI-H23 cells = assay: CCK-8 cell viability with CSPP; type: cell-based; conditions: NCI-H23, CSPP up to 50 μM, 24 hours
Protocol: (§1) HCC827 and NCI-H23 cells were seeded for 24 hours and incubated in CSPP of different concentration for 24 hours. Data given are the mean±SD (n=4). Before CSPP was further functionalized for antibody labeling, its biocompatibility was verified by CCK-8 assay (FIG. 22).

HCC827 cells [2] = assay: CCK-8 cell viability with CSPP; type: cell-based, human; conditions: HCC827, CSPP up to 50 μM, 24 hours
Protocol: as §1

HCC827 cells [3] = assay: Cell imaging of CSPP and co-staining with MitoTracker Green; type: cell-based, human; conditions: 5 μM
Protocol: The cell imaging of CSPP molecule was also checked (FIG. 23). […] After 8 hours of incubation, more dyes entered and accumulated in the mitochondria of the cells due to targeting of the pyridium group.

[4] = Photophysical properties of CSPP; type: physicochemical
Protocol: Inset: photographs of CSPP in water/iPrOH mixtures with 0% and 99% iPrOH fractions taken under 365 nm UV irradiation; (c) PL spectrum of CSPP in water/glycerol mixtures with different glycerol fractions (fG); and (d) plot of I/I0 at 620 nm versus fG, where I0 was the PL intensity in pure water. Inset: plot of log I against log η, where η was the solution viscosity. Concentration: 10 μM; λex: 400 nm.
The photophysical properties of CSPP were studied. […] However, the emission was enhanced at 640 nm in increments of isopropanol fraction (FIGS. 20a and b), which is a signature of AIE. The free intramolecular motion of a molecularly dissolved state in aqueous solution was in favor of non-radiative decay.
Addition of isopropanol induced the formation of aggregates and restricted the intramolecular motion (RIM), activating the radiative channel. Similarly, intramolecular motion can also be restricted in a highly viscous condition.

For `CCN(CC)c1ccc(C(=C(c2ccccc2)c2ccc(C#CC#CC#CC#Cc3ccc(C(=C(c4ccc(N(CC)CC)cc4)c4ccc(N(CC)CC)cc4)c4ccccc4)cc3)cc2)c2ccc(N(CC)CC)cc2)cc1` [2TPE-4E], the maximum absorption [1] was 473 nm, the “water fraction (fw) giving highest emission intensity” value ([1]; THF/water mixtures) was 90% and the “emission in dilute THF solution” value ([1]; dilute THF) was “very weak emission”. The “molar extinction coefficient (ε)” value ([1]; dilute THF solution and thin film) was “about 7×10^4 M^−1 cm^−1”, the “quantum yield (QY)” value ([1]; film) was “around 6%” and the solid emission wavelength ([1]; thin film) was 630 nm.

With `C[n+]1ccc(-c2ccc(/C(C#N)=C/c3ccc(N4CC[N+](C)(C)CC4)cc3)cc2)cc1.[I-].[I-]` [CSPP, (Z)-4-(4-(2-cyano-2-(4-(1-methylpyridin-1-ium-4-yl)phenyl)vinyl)phenyl)-1,1-dimethylpiperazin-1-ium iodide] the water solubility (Water solubility of CSPP) was “water-soluble”, the cell viability (NCI-H23 cells) was > 81% and the cell viability (HCC827 cells [2]) was “above 90%”. For the same compound, the “emission from stained cells” value (HCC827 cells [3]; 30 minutes) was “no emission”, the “emission from stained cells” value (HCC827 cells [3]; 8 hours) was “mitochondria lit up” and the “Pearson correlation coefficient with MitoTracker Green” value (HCC827 cells [3]; 8 hours, co-staining) was 0.80. The “λmax, abs” value ([4]; Aggregates in 99% isopropanol) was 400 nm, the “λmax, em” value ([4]; Aggregates in 99% isopropanol) was 624 nm and the φF ([4]; Aggregates in 99% isopropanol) was 5.6%. The “λmax, abs” value ([4]; In 95% glycerol) was 405 nm, the “λmax, em” value ([4]; In 95% glycerol) was 610 nm and the φF ([4]; In 95% glycerol) was 13.7%. For the same compound, the “λmax, abs” value ([4]; In water) was 395 nm, the “λmax, em” value ([4]; In water) was 640 nm and the φF ([4]; In water) was 0.9%. For the same compound, the “emission in pure water” value ([4]; pure water) was “very weak emission”.
